From patent US20160376237A1, “NOVEL PYRIDINE DERIVATIVES” (Hoffmann-La Roche Inc., priority 2014, published 2016) come the findings set out here.

The EC50 is the midpoint of the concentration-response curve.

The target in one test is T1, human CB2 receptors (Homo sapiens, UniProt P34972).
T1 construct: expressed in transfected cells; host or cells: CHO cells
T1 sequence (P34972 whole entry): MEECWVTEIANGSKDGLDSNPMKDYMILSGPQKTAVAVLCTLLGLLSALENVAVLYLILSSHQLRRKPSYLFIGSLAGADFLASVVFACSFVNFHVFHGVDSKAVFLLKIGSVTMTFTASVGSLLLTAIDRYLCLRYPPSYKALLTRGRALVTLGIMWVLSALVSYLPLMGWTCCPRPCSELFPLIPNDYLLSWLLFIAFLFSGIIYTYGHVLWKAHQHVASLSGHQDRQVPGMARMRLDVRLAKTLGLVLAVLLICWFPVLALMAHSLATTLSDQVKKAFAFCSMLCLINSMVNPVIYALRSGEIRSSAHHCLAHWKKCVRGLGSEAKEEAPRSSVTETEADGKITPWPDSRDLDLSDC
Kind of test: cAMP assay.
Conditions: not given
Format: cell-based. The method, then:
CHO cells expressing human CB1 or CB2 receptors are seeded 17-24 hours prior to the experiment 50.000 cells per well in a black 96 well plate with flat clear bottom (Corning Costar #3904) in DMEM (Invitrogen No. 31331), 1×HT supplement, with 10% fetal calf serum and incubated at 5% CO2 and 37° C. in a humidified incubator. The growth medium was exchanged with Krebs Ringer Bicarbonate buffer with 1 mM IBMX and incubated at 30° C. for 30 min. Compounds were added to a final assay volume of 100 μl and incubated for 30 min at 30° C. Using the cAMP-Nano-TRF detection kit the assay (Roche Diagnostics) was stopped by the addition of 50 μl lysis reagent (Tris, NaCl, 1.5% Triton X100, 2.5% NP40, 10% NaN3) and 50 μl detection solutions ([…] mAb Alexa700-cAMP 1:[…] Ruthenium-2-AHA-cAMP) and shaken for 2 h at room temperature. The time-resolved energy transfer is measured by a TRF reader (Evotec Technologies GmbH), equipped with a ND:YAG laser as excitation source. The plate is measured twice with the excitation at 355 nm and at the emission with a delay of 100 ns and a gate of 100 ns, total exposure time 10 s at 730 (bandwidth 30 nm) or 645 nm (bandwidth 75 nm), respectively. The FRET signal is calculated as follows: FRET=T730-Alexa730-P(T645-B645) with P=Ru730-B730/Ru645-B645, where T730 is the test well measured at 730 nM, T645 is the test well measured at 645 nm, B730 and B645 are the buffer controls at 730 nm and 645 nm, respectively. cAMP content is determined from the function of a standard curve spanning from […] to 0.13 nM cAMP.
EC50 values were determined using Activity Base analysis (ID Business Solution, Limited).
In general terms: cAMP levels reflect the balance of adenylyl cyclase and phosphodiesterase activity.
As for `CCC(CC)(NC(=O)c1ccc(N2CC(OC)C2)c(OCC2CC2)n1)C(=O)N1CC(F)C1` [Example 26, 6-(Cyclopropylmethoxy)-N-[3-(3-fluoroazetidine-1-carbonyl)pentan-3-yl]-5-(3-methoxyazetidin-1-yl)pyridine-2-carboxamide], the EC50 turned out to be 4.58 nM.

Take `NC(=O)[C@@H]1CC(F)(F)CN1C(=O)c1ccc(N2CCC(O)(C(F)(F)F)C2)c(OCC2CC2)n1` (stereo partly drawn) [Example 28, (2S)-1-[6-(Cyclopropylmethoxy)-5-[3-hydroxy-3-(trifluoromethyl)pyrrolidin-1-yl]pyridine-2-carbonyl]-4,4-difluoropyrrolidine-2-carboxamide]: the EC50 was found to be 1680 nM.

For `CC(C)C[C@H](NC(=O)c1ccc(N2CCC(O)(C(F)(F)F)C2)c(OCC2CC2)n1)C(N)=O` (stereo partly drawn) [Example 29, N-[(2S)-1-Amino-4-methyl-1-oxopentan-2-yl]-6-(cyclopropylmethoxy)-5-[3-hydroxy-3-(trifluoromethyl)pyrrolidin-1-yl]pyridine-2-carboxamide], the EC50 was 1890 nM.

On to `CC(C)C[C@H](NC(=O)c1ccc(N2CCC3(C2)CC3(F)F)c(OCC2CC2)n1)C(N)=O` (stereo partly drawn) [Example 30, N-[(2S)-1-Amino-4-methyl-1-oxopentan-2-yl]-6-(cyclopropylmethoxy)-5-(2,2-difluoro-5-azaspiro[2.4]heptan-5-yl)pyridine-2-carboxamide], for which a half-maximal response (EC50) required 38.1 nM.

For `NC(=O)[C@@H]1CC(F)(F)CN1C(=O)c1ccc(N2CCC3(C2)CC3(F)F)c(OCC2CC2)n1` (stereo partly drawn) [Example 31, (2S)-1-[6-(Cyclopropylmethoxy)-5-(2,2-difluoro-5-azaspiro[2.4]heptan-5-yl)pyridine-2-carbonyl]-4,4-difluoropyrrolidine-2-carboxamide], the EC50 came to 19 nM.

`NC(=O)CC1(NC(=O)c2ccc(N3CCC4(C3)CC4(F)F)c(OCC3CC3)n2)COC1` (centres unmarked) [Example 32, N-[3-(2-Amino-2-oxoethyl)oxetan-3-yl]-6-(cyclopropylmethoxy)-5-(2,2-difluoro-5-azaspiro[2.4]heptan-5-yl)pyridine-2-carboxamide]: a half-maximal response (EC50) required 60.2 nM.

Turning to `CC(C)C[C@H](NC(=O)c1ccc(N2CC(C)(F)C2)c(OCC2CC2)n1)C(N)=O` [Example 33, N-[(2S)-1-Amino-4-methyl-1-oxopentan-2-yl]-6-(cyclopropylmethoxy)-5-(3-fluoro-3-methylazetidin-1-yl)pyridine-2-carboxamide], the EC50 was 19.6 nM.

`CC1(F)CN(c2ccc(C(=O)N3CC(F)(F)C[C@H]3C(N)=O)nc2OCC2CC2)C1` [Example 34, (2S)-1-[6-(Cyclopropylmethoxy)-5-(3-fluoro-3-methylazetidin-1-yl)pyridine-2-carbonyl]-4,4-difluoropyrrolidine-2-carboxamide]: the EC50 is 11.4 nM.

With `CC1(F)CN(c2ccc(C(=O)NC3(CC(N)=O)COC3)nc2OCC2CC2)C1` [Example 35, N-[3-(2-Amino-2-oxoethyl)oxetan-3-yl]-6-(cyclopropylmethoxy)-5-(3-fluoro-3-methylazetidin-1-yl)pyridine-2-carboxamide], a half-maximal effect (EC50) was put at 213 nM.

`CC(C)C[C@H](NC(=O)c1ccc(N2CC(F)(C3CC3)C2)c(OCC2CC2)n1)C(N)=O` [Example 36, N-[(2S)-1-Amino-4-methyl-1-oxopentan-2-yl]-5-(3-cyclopropyl-3-fluoroazetidin-1-yl)-6-(cyclopropylmethoxy)pyridine-2-carboxamide] showed a half-maximal effective concentration (EC50) of 20 nM.

In the case of `NC(=O)[C@@H]1CC(F)(F)CN1C(=O)c1ccc(N2CC(F)(C3CC3)C2)c(OCC2CC2)n1` [Example 37, (2S)-1-[5-(3-Cyclopropyl-3-fluoroazetidin-1-yl)-6-(cyclopropylmethoxy)pyridine-2-carbonyl]-4,4-difluoropyrrolidine-2-carboxamide], the EC50 came out at 19.3 nM.

Turning to `NC(=O)CC1(NC(=O)c2ccc(N3CC(F)(C4CC4)C3)c(OCC3CC3)n2)COC1` [Example 38, N-[3-(2-Amino-2-oxoethyl)oxetan-3-yl]-5-(3-cyclopropyl-3-fluoroazetidin-1-yl)-6-(cyclopropylmethoxy)pyridine-2-carboxamide], a half-maximal effect (EC50) was put at 48.3 nM.

Compound `NC(=O)[C@@H]1CC(F)(F)CN1C(=O)c1ccc(OCC2CC2)c(-c2ccc(Cl)cc2)n1` [Example 39, (2S)-1-[6-(4-Chlorophenyl)-5-(cyclopropylmethoxy)pyridine-2-carbonyl]-4,4-difluoropyrrolidine-2-carboxamide] showed an EC50 of 18 nM.

The compound `Cc1nc(C(C)(C)NC(=O)c2ccc(OCC3CC3)c(-c3ccc(Cl)cc3)n2)no1` [Example 40, 6-(4-Chlorophenyl)-5-(cyclopropylmethoxy)-N-[2-(5-methyl-1,2,4-oxadiazol-3-yl)propan-2-yl]pyridine-2-carboxamide] came in with an EC50 of 16.9 nM.

For the compound `CCC(CC)(NC(=O)c1ccc(N2CC(F)(C3CC3)C2)c(OCC2CC2)n1)C(=O)NCCCF` [Example 41, 5-(3-Cyclopropyl-3-fluoroazetidin-1-yl)-6-(cyclopropylmethoxy)-N-[3-(3-fluoropropylcarbamoyl)pentan-3-yl]pyridine-2-carboxamide], the EC50 is 669 nM.

`CC(C)C[C@H](NC(=O)c1ccc(OCC2CC2)c(-c2ccc(Cl)cc2)n1)C(N)=O` [Example 42, N-[(2S)-1-Amino-4-methyl-1-oxopentan-2-yl]-6-(4-chlorophenyl)-5-(cyclopropylmethoxy)pyridine-2-carboxamide]: the EC50 was found to be 4.44 nM.

Staying with this test, now noted: CHO cells expressing human CB2 receptors; read-out: cAMP assay human CB2 EC50.
Regarding `CCC(CC)(NC(=O)c1ccc(N2CC(OC)C2)c(OCC2CC2)n1)C(=O)NCCCF` [Example 27, 6-(Cyclopropylmethoxy)-N-[3-(3-fluoropropylcarbamoyl)pentan-3-yl]-5-(3-methoxyazetidin-1-yl)pyridine-2-carboxamide], the EC50 came out at 444 nM.
